{"source": "patent US20240117357A1", "about": "“REGULATION OF METABOLISM AND OBESITY BY MITOCHONDRIAL MUL1 E3 UBIQUITIN LIGASE” (University of Central Florida Research Foundation, Inc., priority 2022, published 2024)", "assay_type_in_all_cases": "cell-based, human", "key": {"HEK293 Akt2(−/−) cells [1]": {"tested_on": "HEK293 Akt2(−/−) cells", "assay": "Glycolytic Stress Test (ECAR, Seahorse XFe24)", "conditions": "DMOG 100 μM for 4 hours", "procedure": "(§1) To monitor glycolysis in the cell lines, the Glycolysis Stress Test was performed using a XFe24 Extracellular Flux Analyzer (Agilent Technologies). HEK293 WT, MUL1(−/−) and Akt2(−/−) cells were seeded in triplicates on poly-lysine D-coated XFe24 microplates at a density of 60,000 cells per well in assay medium (XF DMEM pH 7.4 containing 2 mM glutamine and 1 mM sodium pyruvate without glucose) for one hour in a CO2-free incubator. Extracellular acidification rate (ECAR) was measured under basal conditions and again after sequential injections of glucose (10 mM) in port A, ATP synthase inhibitor oligomycin (1.5 μM) in port B, and the glycolysis inhibitor 2-deoxyglucose (2-DG) (300 mM) in port C. Basal glycolysis was assessed by recording three measurements, following the addition of each compound by a 3-2-3 mix/measurement cycle. Glycolysis is the ECAR after the addition of glucose. Glycolytic capacity is the increase in ECAR after the injection of oligomycin following glucose. Glycolytic reserve is the difference between glycolytic capacity and glycolysis. Data analysis was performed using Report Generators software for Glycolysis Stress Test (Agilent Technologies)."}, "HEK293 WT cells": {"tested_on": "HEK293 WT cells", "assay": "Glycolytic Stress Test (ECAR, Seahorse XFe24)", "conditions": "DMOG 100 μM for 4 hours", "procedure": "as §1"}, "HEK293 Akt2(−/−) cells [2]": {"tested_on": "HEK293 Akt2(−/−) cells", "assay": "13C-NMR isotopomer metabolic flux analysis ([U-13C]glucose, tcaCALC)", "procedure": "For NMR analysis, approximately 20×10^6 HEK293 WT, MUL1(−/−), or Akt2(−/−) cells were grown to confluency following treatment with perifosine, or chetomin inhibitors as well as with the HIF-1α activator DMOG and DMSO was used as vehicle control. Freshly prepared [U-^13C]glucose tracer containing medium (glucose free DMEM with 10% dialyzed FBS and 15 mM [U-^13C]glucose) was added to the cells for 6 hours at 37° C. Cells were scraped from the plates, washed twice with cold PBS, and immediately snap frozen in liquid nitrogen (161).\nCell pellets were bead-homogenized in 1 ml acetonitrile:isopropanol:water (3:3:2, v:v:v), centrifuged at 10,000×g for 15 min at 4° C. and the supernatant removed and dried in a speedvac. Dried cell extracts of each sample were re-suspended in 0.5 ml of acetonitrile: water (1:1, v:v) solution, vortexed, and centrifuged for 15 min at 10,000×g at 4° C. The supernatant was transferred to a new tube and dried in a speedvac The dried extract of each cell pellet was re-suspended in phosphate buffer (prepared in Deuterium oxide (D2O)) for NMR analysis. […]\n^1H-NMR spectra were collected on an 800 MHz NMR, equipped with a 5 mm TXI CryoProbe and Avance III console (Bruker Biospin), using TopSpin software (version 3.6.3). […] The conventional ^1H-decoupled ^13C-NMR spectra were acquired for each sample at 150.13 MHz, using a ^13C-optimized 1.5 mm high temperature superconducting (HTS) probe on an Agilent NMR system with the magnetic field strength of 14 tesla. ^13C-NMR spectra were recorded using an acquisition time (AQ) of 1.5 sec, relaxation delay (dl) of 1.5 sec, flip angle of 45°, acquired size (TD) of 54 k with the spectral width of 250 ppm (Ramaswamy et al., 2013). […]\nThe positional ^13C-isotopomer distribution pattern of glutamate was determined by ^13C-NMR. ^13C-NMR resonances of various isotopomers of glutamate are identified from the ^13C-^13C J-coupling constants and quantified by line fitting to the glutamate resonances at C2, C3, C4, and C5 positions. […]"}, "HEK293 MUL1(−/−) cells [3]": {"tested_on": "HEK293 MUL1(−/−) cells", "assay": "Glycolytic Stress Test (ECAR, Seahorse XFe24)", "conditions": "2.5 μM perifosine or 500 nM chetomin for 4 hours", "procedure": "as §1"}, "HEK293 MUL1(−/−) cells [4]": {"tested_on": "HEK293 MUL1(−/−) cells", "assay": "Mitochondrial Stress Test (OCR, Seahorse XFe24)", "conditions": "for oxygen consumption rate (OCR): HEK293 MUL1(−/−) cells, 2.5 μM perifosine or 500 nM chetomin for 4 hours; for mitochondrial respiration: at the concentration used (2.5 μM perifosine, 500 nM chetomin, 4 hours)", "procedure": "Mitochondrial stress assay was performed using an XFe24 Extracellular Flux Analyzer (Agilent Technologies) following the workflow provided by the manufacturer's instructions. Briefly, for Oxygen Consumption Rate (OCR) measurements, HEK293 WT and MUL1(−/−) cells were seeded in triplicates on poly-lysine D-coated XF24 microplates at a density of approximately 60,000 cells per well in assay medium (XF DMEM medium pH 7.4 supplemented with 10 mM glucose, 2 mM glutamine, and 1 mM pyruvate), followed by incubation at 37° C. in CO2-free incubator for 60 minutes. Three baseline measurements were recorded before the injection of the following compounds: 1.5 μM of oligomycin in port A, 1.0 μM of FCCP in port B and 0.5 μM rotenone/antimycin in port C. Data analysis was performed using Cell Mito Stress Test Report Generators software (Agilent Technologies)."}, "HIF-1α": {"tested_on": "HIF-1α", "assay": "Western blot of HIF-1α target protein GLUT1", "conditions": "500 nM chetomin for 4 hours", "procedure": "(§2) Control (untreated) as well as cells treated with perifosine, chetomin or DMOG were lysed using a Triton X-100 based lysis buffer (1% Triton X-100, 10% glycerol, 150 mM NaCl, 20 mM Tris (pH 7.5), 2 mM EDTA) in the presence of protease inhibitors (Thermo Fisher Scientific). Approximately 40 μg of whole cell extract was resuspended in SDS sample buffer, boiled for 4 minutes, and analyzed by SDS-PAGE (12% or 15% gels), then transferred onto PVDF membranes (Genesee) using a semi-dry cell transfer blot (Bio-Rad). Nonfat dry milk (4%) or 5% BSA (for Akt2 and phospho-specific antibodies) in TBST buffer (25 mM Tris-HCl, pH 8.0, 125 mM NaCl, 0.1% Tween 20) were used to block nonspecific binding of the membrane. The membranes were incubated with the indicated primary antibodies: HIF-1α (Bioss Antibodies, 1:2,000), AKT (pan), Akt1, Akt2, Akt3, phospho-Akt-T308, phospho-GSK-3β-S9, ULK1 (Cell Signaling Technology 1:2,000), GLUT1, (ABclonal 1:2,000), MFN2, and β-actin (Santa Cruz Biotechnology, 1:3,000). MUL1 and UBXN7 rabbit polyclonal antibodies were homegrown and used at 1:5,000 dilution. Secondary peroxidase-conjugated goat anti-rabbit or goat anti-mouse antibodies (Jackson ImmunoResearch) were used at 1:10,000 dilution. The membrane was visualized by enhanced chemiluminescence (ECL) (Thermo Fisher Scientific)."}, "Akt2": {"tested_on": "Akt2", "assay": "Western blot of Akt2 target P-GSK-3β S9", "conditions": "2.5 μM perifosine for 4 hours", "procedure": "as §2"}}}
{"smiles": "COC(=O)CNC(=O)C(=O)OC", "note": "[DMOG, dimethyloxalyglycine]", "values": [{"measurement": "glycolysis and glycolytic capacity", "setting": "HEK293 Akt2(−/−) cells [1]", "result": "small but significant increase"}, {"measurement": "glycolysis and glycolytic capacity", "setting": "HEK293 WT cells", "result": "unremarkable"}, {"measurement": "YPC flux", "setting": "HEK293 Akt2(−/−) cells [2]; Akt2(−/−)+DMOG cells compared with HEK293 WT and MUL1(−/−) cells", "result": "elevated above WT, but fell short of reaching MUL1(−/−) levels"}, {"measurement": "PK flux", "setting": "HEK293 Akt2(−/−) cells [2]; Akt2(−/−)+DMOG cells compared with HEK293 WT cells", "result": "partially restored with DMOG, but did not reach the WT levels"}, {"measurement": "PK, YPC, and YS fluxes", "setting": "HEK293 Akt2(−/−) cells [2]; Akt2(−/−)+DMOG vs Akt2(−/−) cells, relative to citrate synthase flux of 1", "result": "significantly increased"}]}
{"smiles": "CN1C(=O)[C@]2(Cc3cn([C@]45C[C@@]67SS[C@@](CO)(C(=O)N6[C@H]4Nc4ccccc45)N(C)C7=O)c4ccccc34)SS[C@@]1(CO)C(=O)N2C", "note": "[chetomin]", "values": [{"measurement": "ECAR and glycolysis (glycolytic function)", "setting": "HEK293 MUL1(−/−) cells [3]", "result": "very potent inhibitor of the mitochondrial glycolytic function"}, {"measurement": "oxygen consumption rate (OCR)", "setting": "HEK293 MUL1(−/−) cells [4]", "result": "further reduced"}, {"measurement": "mitochondrial respiration", "setting": "HEK293 MUL1(−/−) cells [4]", "result": "potent inhibitors of mitochondrial respiration"}, {"measurement": "expression of GLUT1", "setting": "HIF-1α", "result": "significantly reduces"}]}
{"smiles": "CCCCCCCCCCCCCCCCCCOP(=O)([O-])OC1CC[N+](C)(C)CC1", "note": "[perifosine]", "values": [{"measurement": "ECAR and glycolysis (glycolytic function)", "setting": "HEK293 MUL1(−/−) cells [3]", "result": "reduced ECAR and glycolysis to a level lower than the one present in HEK293 WT cells"}, {"measurement": "oxygen consumption rate (OCR)", "setting": "HEK293 MUL1(−/−) cells [4]", "result": "further reduced"}, {"measurement": "mitochondrial respiration", "setting": "HEK293 MUL1(−/−) cells [4]", "result": "potent inhibitors of mitochondrial respiration"}, {"measurement": "Akt2 kinase activity (P-GSK-3β S9)", "setting": "Akt2", "result": "inhibits"}]}
